Data from patent US20050187240A1, “Aaptamine and isoaaptamine and structural modifications thereof” (The Arizona Board of Regents, Acting for and on behalf of …, priority 2004, published 2005).
Read-outs that look alike come from different tables or passages of the source.

Columns and labels:
Enterobacter cloacae = test: Broth microdilution susceptibility assay, Enterobacter cloacae; type: cell-based; conditions: for Range of minimum inhibitory concentration: Table 6
Escherichia coli = test: Broth microdilution susceptibility assay, Escherichia coli; type: cell-based; conditions: for Range of minimum inhibitory concentration: Table 6
CNS SF-268 = test: Cancer cell growth inhibition, CNS SF-268; type: cell-based, human; conditions: Homo sapiens, CNS SF-268
Description: (§1) Biology The cancer cell growth inhibitory properties were examined using the murine P388 lymphocytic leukemia cell line and a selection of human cancer cell lines.
(§2) All of the synthetic products were evaluated against a minipanel of human cancer cell lines, the murine P388 lymphocytic leukemia cell line and a selection of microorganisms.

Micrococcus luteus = test: Broth microdilution susceptibility assay, Micrococcus luteus; type: cell-based; conditions: for Range of minimum inhibitory concentration: Table 6
Staphylococcus aureus = test: Broth microdilution susceptibility assay, Staphylococcus aureus; type: cell-based; conditions: for Range of minimum inhibitory concentration: Table 6
[1] = test system: murine P388 lymphocytic leukemia cell line; test: Cancer cell growth inhibition, murine P388 lymphocytic leukemia cell line; type: cell-based; conditions: for IC50: Mus musculus
From the text: (§3) Evaluation of demethyloxyaaptamine (3), aaptamine (1), isoaaptamine (2) and hystatin 1 (11) against the Arizona State University Cancer Research Institute's human tumor cell line panel (Table 1) and the NCI 60-cell line human tumor screen were undertaken. (Boyd, M. R., Cancer: Principles and Practices of Oncology Updates; DeVita, et al., Eds; Lippincott: Philadelphia, 1989, Vol. 10, No. 3, pp. 1-12; Boyd, et al., Drug Development Research 1995, 34, 91-109; Boyd, M. R., et al. Cytotoxic Anticancer Drugs: Models and Concepts for Drug Discovery and Development; Valeriote, A., et al., Eds, Kluwer Academic Publishers: Amsterdam, 1992, pp. 11-34.)
as §1, §2

[2] = test system: Stenotrophomonas maltophilia; test: Broth microdilution susceptibility assay, Stenotrophomonas maltophilia; type: cell-based; conditions: for Range of minimum inhibitory concentration: Table 6
Enterococcus faecalis = test: Broth microdilution susceptibility assay, Enterococcus faecalis; type: cell-based; conditions: for Range of minimum inhibitory concentration: Table 6
colon KM 20L2 = test: Cancer cell growth inhibition, colon KM 20L2; type: cell-based, human; conditions: Homo sapiens, colon KM 20L2
From the text: as §3, §1, §2

Streptococcus pneumoniae = test: Broth microdilution susceptibility assay, Streptococcus pneumoniae; type: cell-based; conditions: for Range of minimum inhibitory concentration: Table 6
pancreas BXPC-3 = test: Cancer cell growth inhibition, pancreas BXPC-3; type: cell-based, human; conditions: Homo sapiens, pancreas BXPC-3
Description: as §1, §2

breast MCF-7 = test: Cancer cell growth inhibition, breast MCF-7; type: cell-based, human; conditions: Homo sapiens, MCF7, breast MCF-7
Description: as §1, §2

Cryptococcus neoformans = test: Broth microdilution susceptibility assay, Cryptococcus neoformans; type: cell-based; conditions: for Range of minimum inhibitory concentration: Table 6
prostrate DU-145 = test: Cancer cell growth inhibition, prostate DU-145; type: cell-based, human; conditions: Homo sapiens
Description: as §1, §2

Neisseria gonorrhoeae = test: Broth microdilution susceptibility assay, Neisseria gonorrhoeae; type: cell-based; conditions: for Range of minimum inhibitory concentration: Table 6
lung NCI-H460 = test: Cancer cell growth inhibition, lung NCI-H460; type: cell-based, human; conditions: Homo sapiens, lung NCI-H460
From the text: as §3, §1, §2

Candida albicans = test: Broth microdilution susceptibility assay, Candida albicans; type: cell-based; conditions: for Range of minimum inhibitory concentration: Table 6
PKC alpha [3] = biological target: T1, PKC alpha (Homo sapiens, UniProt P17252); test: Inhibition of PKC catalytic activity (peptide substrate phosphorylation); type: biochemical; conditions: 30 μM compound; 1 μM phorbol 12-myristate 13-acetate, 100 μg/ml phospholipid; mean±SEM, three experiments; read-out: percent inhibition of PKC catalytic activity
From the text: We further evaluated the ability of the derivatives to inhibit PKC catalytic activity. […] Inhibition by 10c was 19.5±7.6% and inhibition by 4, 5, and 9a, b, c was 6% or less (all values are mean±SEM, three experiments). […] In both cases, the inhibition curves were steeper than predicted for a competitive inhibitor, consistent with a complicated mechanism of action (Hill coefficients for 10a and 10b of 1.5±0.1 and 2.0±0.5, respectively).

PKC alpha [4] = biological target: T1, PKC alpha; test: Inhibition of [3H]phorbol 12,13-dibutyrate binding to PKC alpha; conditions: 30 μM compound; read-out: inhibition of [3H]phorbol 12,13-dibutyrate binding to PKC alpha
Description: Isoaaptamine (2) and derivatives 4, 5, 7, 8, and 14-18 were evaluated as ligands for PKC, based on the initial report of activity for isoaaptamine (Patil, et al., PCT Int. Appl. WO 95/0584 March 1995). Activity was measured at 30 μM compound using inhibition of [^3H-20]phorbol 12,13-dibutyrate binding to PKC alpha as described previously (Kazanietz, M. G., et al., Molecular Pharmacol., 1993, 44, 298). Assays were carried out with triplicate measurements in either single or triplicate experiments, depending on the compound.
Compounds 4, 5, 9a-c, and 10a-d were evaluated as ligands for PKC, based on the initial report of activity for isoaaptamine. Activity was measured at 30 μM compound using inhibition of [20-^3H]phorbol 12,13-dibutyrate binding to PKC alpha as described previously (Kazanietz, M. G., et al., Characterization of Ligand and Substrate Specificity for the Calcium-Dependent and Calcium-Independent Protein Kinase C Isoenzymes, Molecular Pharmacol. 1993, 44, 298-307). Assays were carried out with triplicate measurement in either single or triplicate experiments, depending on the compound. Inhibition by 9a and 9b was 6.4% and 9.2%, respectively. That by 10a, 10b, and 10d was 11.8%, 12.6%, and 16.0%, respectively. That by other derivatives was 5% or less. We conclude that these compounds show only very weak activity as ligands for PKC.

[5] = Table 5, read-out: Cancer Cell Line Results ED50
[6] = Table 5, leukemia P388, read-out: Cancer Cell Line Results ED50
[7] = DU-145, Table 5, prostate DRU-145, read-out: Cancer Cell Line Results ED50
[8] = Table 4, read-out: Range of minimum inhibitory concentration
[9] = Table 3, read-out: Cancer cell growth inhibitory ED50

## COc1cc(CN2C=Cc3cc(OC)c(OC)c4c3c2cc[n+]4Cc2cc(OC)c(OC)c(OC)c2)cc(OC)c1OC.[Br-] [Compound 10c, 8,9-Dimethoxy-1,4-bis-(3,4,5-trimethoxy-benzyl)-4H-benzo[de][1,6]-naphthyridin-1-ium bromide]
Enterobacter cloacae
  Range of minimum inhibitory concentration: * (no inhibition at 64 μg/mL)
Escherichia coli
  Range of minimum inhibitory concentration: * (no inhibition at 64 μg/mL)
CNS SF-268; [5]
  IC50: > 10 µg/mL
Micrococcus luteus
  Range of minimum inhibitory concentration: 64 µg/mL
Staphylococcus aureus
  Range of minimum inhibitory concentration: * (no inhibition at 64 μg/mL)
[1]; [6]
  IC50: > 10 µg/mL
[2]
  Range of minimum inhibitory concentration: * (no inhibition at 64 μg/mL)
other
  melting point: 116 to 118 °C
Enterococcus faecalis
  Range of minimum inhibitory concentration: * (no inhibition at 64 μg/mL)
Colon KM 20L2; [5]
  IC50: > 10 µg/mL
Streptococcus pneumoniae
  Range of minimum inhibitory concentration: * (no inhibition at 64 μg/mL)
Pancreas BXPC-3; [5]
  IC50: > 10 µg/mL
Breast MCF-7; [5]
  IC50: > 10 µg/mL
Cryptococcus neoformans
  Range of minimum inhibitory concentration: * (no inhibition at 64 μg/mL)
Prostrate DU-145; [7]
  IC50: > 10 µg/mL
Neisseria gonorrhoeae
  Range of minimum inhibitory concentration: * (no inhibition at 64 μg/mL)
Lung NCI-H460; [5]
  IC50: > 10 µg/mL
Candida albicans
  Range of minimum inhibitory concentration: * (no inhibition at 64 μg/mL)
PKC alpha [3]
  inhibition at 30 µM: 19.5 ± 7.6%

## COc1ccc(C[n+]2ccc3c4c(cc(OC)c(OC)c42)C=CN3Cc2cc(OC)c(OC)c(OC)c2)cc1O.[Br-] [Compound 10d, 8,9-Dimethoxy-1-(3-hydroxy-4-methoxybenzyl)-4-(3,4,5-trimethoxybenzyl)-4H-benzo[de][1,6]naphthyridin-1-ium bromide]
Enterobacter cloacae
  Range of minimum inhibitory concentration: * (no inhibition at 64 μg/mL)
Escherichia coli
  Range of minimum inhibitory concentration: * (no inhibition at 64 μg/mL)
CNS SF-268; [5]
  IC50: > 10 µg/mL
Micrococcus luteus
  Range of minimum inhibitory concentration: 8 to 16 µg/mL
Staphylococcus aureus
  Range of minimum inhibitory concentration: * (no inhibition at 64 μg/mL)
[1]; [6]
  IC50: > 10 µg/mL
[2]
  Range of minimum inhibitory concentration: * (no inhibition at 64 μg/mL)
Enterococcus faecalis
  Range of minimum inhibitory concentration: * (no inhibition at 64 μg/mL)
Colon KM 20L2; [5]
  IC50: > 10 µg/mL
Streptococcus pneumoniae
  Range of minimum inhibitory concentration: * (no inhibition at 64 μg/mL)
Pancreas BXPC-3; [5]
  IC50: > 10 µg/mL
Breast MCF-7; [5]
  IC50: > 10 µg/mL
Cryptococcus neoformans
  Range of minimum inhibitory concentration: * (no inhibition at 64 μg/mL)
Prostrate DU-145; [7]
  IC50: > 10 µg/mL
Neisseria gonorrhoeae
  Range of minimum inhibitory concentration: * (no inhibition at 64 μg/mL)
Lung NCI-H460; [5]
  IC50: > 10 µg/mL
Candida albicans
  Range of minimum inhibitory concentration: * (no inhibition at 64 μg/mL)
PKC alpha [3]
  inhibition at 30 µM: 43.2 ± 10.1%
PKC alpha [4]
  inhibition at 30 µM: 16%

## COC1=Cc2ccnc3ccnc(c23)C1(OC)OC [Compound 12]
[1]; murine P388
  P388 ED50: 59 µg/mL

## COc1ccc(CN2C=Cc3cc(OC)c(OC)c4c3c2cc[n+]4C)cc1.[I-] [Compound 17, 1-Methyl-4-(4-methoxybenzyl)-8,9-dimethoxy-4H-benzo[de][1,6]-naphthyridin-1-ium iodide]
Enterobacter cloacae; [8]
  MIC: > 64 µg/mL
Escherichia coli; [8]
  MIC: > 64 µg/mL
CNS SF-268; [9]
  IC50: 5.9 µg/mL
Micrococcus luteus; [8]
  MIC: 4 to 8 µg/mL
Staphylococcus aureus; [8]
  MIC: > 64 µg/mL
[1]; P388, Table 3, leukemia P-388, read-out: Cancer cell growth inhibitory ED50
  IC50: 3.1 µg/mL
[2]; Table 4, Stenotrophomonas maltophil, read-out: Range of minimum inhibitory concentration
  MIC: > 64 µg/mL
Enterococcus faecalis; [8]
  MIC: > 64 µg/mL
Colon KM 20L2; [9]
  IC50: 5.4 µg/mL
Streptococcus pneumoniae; [8]
  MIC: > 64 µg/mL
Pancreas BXPC-3; [9]
  IC50: 7 µg/mL
Breast MCF-7; [9]
  IC50: 8 µg/mL
Cryptococcus neoformans; [8]
  MIC: > 64 µg/mL
Prostrate DU-145; Table 3, prostrate DU-145, read-out: Cancer cell growth inhibitory ED50
  IC50: 7.5 µg/mL
Neisseria gonorrhoeae; [8]
  MIC: 64 µg/mL
Lung NCI-H460; [9]
  IC50: 4.6 µg/mL
Candida albicans; [8]
  MIC: > 64 µg/mL
